Data as given in ChEMBL document CHEMBL1126927.

The molecules below were run against Estrogen receptor (Ovis aries) (UniProt P49885+Q9TU15).
Description: Association constant for estrogen receptor

K ass | Compound
1e+09 | [N-]=[N+]=Nc1ccc(C(=O)c2c(-c3ccc(O)cc3)sc3cc(O)ccc23)cc1
1.7e+08 | [N-]=[N+]=Nc1c(F)c(F)c(C(=O)c2c(-c3ccc(O)cc3)sc3cc(O)ccc23)c(F)c1F
1.3e+09 | O=C(c1ccc(OCCN2CCCC2)cc1)c1c(-c2ccc(O)cc2)sc2cc(O)ccc12
